In PubChem BioAssay AID1259407 (Chemical Carcinogenesis Research Information System (CCRIS), 2018):
Activity calls are given as the source filed them. How the calls were made is not given here.

System: CCRIS mutagenicity, Ames/micronucleus/aberration tests
Assay: CCRIS mutagenicity studies
[1] = Test System: AMES SALMONELLA TYPHIMURIUM, Strain/Indicator: TA98, Metabolic Activation: NONE, Method: STANDARD PLATE
[2] = Test System: AMES SALMONELLA TYPHIMURIUM, Strain/Indicator: TA98, Metabolic Activation: RAT, LIVER, S-9, AROCLOR 1254, Method: STANDARD PLATE
[3] = Test System: AMES SALMONELLA TYPHIMURIUM, Strain/Indicator: TA100, Metabolic Activation: NONE, Method: STANDARD PLATE
[4] = Test System: AMES SALMONELLA TYPHIMURIUM, Strain/Indicator: TA100, Metabolic Activation: RAT, LIVER, S-9, AROCLOR 1254, Method: STANDARD PLATE
[5] = Test System: AMES SALMONELLA TYPHIMURIUM, Strain/Indicator: TA1535, Metabolic Activation: NONE, Method: STANDARD PLATE
[6] = Test System: AMES SALMONELLA TYPHIMURIUM, Strain/Indicator: TA1535, Metabolic Activation: RAT, LIVER, S-9, AROCLOR 1254, Method: STANDARD PLATE
[7] = Test System: AMES SALMONELLA TYPHIMURIUM, Strain/Indicator: TA1537, Metabolic Activation: NONE, Method: STANDARD PLATE
[8] = Test System: AMES SALMONELLA TYPHIMURIUM, Strain/Indicator: TA1537, Metabolic Activation: RAT, LIVER, S-9, AROCLOR 1254, Method: STANDARD PLATE

Compound: ClC(Br)Br
- mutagenic call (End Point: IN VITRO CHROMOSOMAL ABERRATIONS, Test System: CHINESE HAMSTER LUNG FIBROBLAST CELLS (CHL/IU), Metabolic Activation: RAT, LIVER, S-9, PHENOBARBITAL AND 5,6-BENZOFLAVONE): inactive; negative; authors describe as weakly positive
- mutagenic call (End Point: IN VITRO CHROMOSOMAL ABERRATIONS, Test System: CHO-LB CELLS, Metabolic Activation: NONE): inactive; negative
- mutagenic call (End Point: IN VIVO MICRONUCLEUS, Test System: BONE MARROW POLYCHROMATIC ERYTHROCYTES, Species: MOUSE, Strain/Sex: DDY/MALE, Route: IP): inactive; negative
- mutagenic call (Test System: AMES SALMONELLA TYPHIMURIUM, Strain/Indicator: RSJ100, Metabolic Activation: NONE, Method: STANDARD PLATE): active; positive
- mutagenic call (Test System: AMES SALMONELLA TYPHIMURIUM, Strain/Indicator: TA98, Metabolic Activation: HAMSTER, LIVER, S-9, AROCLOR 1254 (10%), Method: PREINCUBATION): inactive; negative
- mutagenic call (Test System: AMES SALMONELLA TYPHIMURIUM, Strain/Indicator: TA98, Metabolic Activation: HAMSTER, LIVER, S-9, AROCLOR 1254, Method: PREINCUBATION): inactive; negative
- mutagenic call (Test System: AMES SALMONELLA TYPHIMURIUM, Strain/Indicator: TA98, Metabolic Activation: NONE, Method: PREINCUBATION): inactive; negative
- mutagenic call [1]: inactive; negative
- mutagenic call (Test System: AMES SALMONELLA TYPHIMURIUM, Strain/Indicator: TA98, Metabolic Activation: RAT, LIVER, S-9, AROCLOR 1254 (10%), Method: PREINCUBATION): inactive; negative
- mutagenic call (Test System: AMES SALMONELLA TYPHIMURIUM, Strain/Indicator: TA98, Metabolic Activation: RAT, LIVER, S-9, AROCLOR 1254, Method: PREINCUBATION): inactive; negative
- mutagenic call [2]: active; positive
- mutagenic call (Test System: AMES SALMONELLA TYPHIMURIUM, Strain/Indicator: TA100, Metabolic Activation: HAMSTER, LIVER, S-9, AROCLOR 1254 (10%), Method: PREINCUBATION): inactive; negative
- mutagenic call (Test System: AMES SALMONELLA TYPHIMURIUM, Strain/Indicator: TA100, Metabolic Activation: HAMSTER, LIVER, S-9, AROCLOR 1254, Method: PREINCUBATION): inactive; negative
- mutagenic call (Test System: AMES SALMONELLA TYPHIMURIUM, Strain/Indicator: TA100, Metabolic Activation: NONE, Method: DESICCATOR): active; positive
- mutagenic call (Test System: AMES SALMONELLA TYPHIMURIUM, Strain/Indicator: TA100, Metabolic Activation: NONE, Method: FLUCTUATION TEST): inactive; negative
- mutagenic call (Test System: AMES SALMONELLA TYPHIMURIUM, Strain/Indicator: TA100, Metabolic Activation: NONE, Method: PREINCUBATION): inactive; negative
- mutagenic call [3]: inactive; negative
- mutagenic call (Test System: AMES SALMONELLA TYPHIMURIUM, Strain/Indicator: TA100, Metabolic Activation: RAT, LIVER, S-9, AROCLOR 1254 (10%), Method: PREINCUBATION): inactive; negative
- mutagenic call (Test System: AMES SALMONELLA TYPHIMURIUM, Strain/Indicator: TA100, Metabolic Activation: RAT, LIVER, S-9, AROCLOR 1254, Method: FLUCTUATION TEST): inactive; negative
- mutagenic call (Test System: AMES SALMONELLA TYPHIMURIUM, Strain/Indicator: TA100, Metabolic Activation: RAT, LIVER, S-9, AROCLOR 1254, Method: PREINCUBATION): inactive; negative
- mutagenic call [4]: active; positive
- mutagenic call (Test System: AMES SALMONELLA TYPHIMURIUM, Strain/Indicator: TA1535, Metabolic Activation: HAMSTER, LIVER, S-9, AROCLOR 1254 (10%), Method: PREINCUBATION): inactive; negative
- mutagenic call (Test System: AMES SALMONELLA TYPHIMURIUM, Strain/Indicator: TA1535, Metabolic Activation: HAMSTER, LIVER, S-9, AROCLOR 1254, Method: PREINCUBATION): inactive; negative
- mutagenic call (Test System: AMES SALMONELLA TYPHIMURIUM, Strain/Indicator: TA1535, Metabolic Activation: NONE, Method: PREINCUBATION): inactive; negative
- mutagenic call [5]: active; positive
- mutagenic call (Test System: AMES SALMONELLA TYPHIMURIUM, Strain/Indicator: TA1535, Metabolic Activation: RAT, LIVER, S-9, AROCLOR 1254 (10%), Method: PREINCUBATION): inactive; negative
- mutagenic call (Test System: AMES SALMONELLA TYPHIMURIUM, Strain/Indicator: TA1535, Metabolic Activation: RAT, LIVER, S-9, AROCLOR 1254, Method: PREINCUBATION): inactive; negative
- mutagenic call [6]: active; positive
- mutagenic call (Test System: AMES SALMONELLA TYPHIMURIUM, Strain/Indicator: TA1537, Metabolic Activation: HAMSTER, LIVER, S-9, AROCLOR 1254 (10%), Method: PREINCUBATION): inactive; negative
- mutagenic call (Test System: AMES SALMONELLA TYPHIMURIUM, Strain/Indicator: TA1537, Metabolic Activation: HAMSTER, LIVER, S-9, AROCLOR 1254, Method: PREINCUBATION): inactive; negative
- mutagenic call (Test System: AMES SALMONELLA TYPHIMURIUM, Strain/Indicator: TA1537, Metabolic Activation: NONE, Method: PREINCUBATION): inactive; negative
- mutagenic call [7]: active; positive
- mutagenic call (Test System: AMES SALMONELLA TYPHIMURIUM, Strain/Indicator: TA1537, Metabolic Activation: RAT, LIVER, S-9, AROCLOR 1254 (10%), Method: PREINCUBATION): inactive; negative
- mutagenic call (Test System: AMES SALMONELLA TYPHIMURIUM, Strain/Indicator: TA1537, Metabolic Activation: RAT, LIVER, S-9, AROCLOR 1254, Method: PREINCUBATION): inactive; negative
- mutagenic call [8]: active; positive
- mutagenic call (Test System: MOUSE LYMPHOMA, Strain/Indicator: L5178Y (TK+/TK-), Metabolic Activation: NONE, Method: MICROWELL): inactive; negative
- mutagenic call (Test System: MOUSE LYMPHOMA, Strain/Indicator: L5178Y (TK+/TK-), Metabolic Activation: NONE, Method: SUSPENSION/PLATE): active; positive
- mutagenic call (Test System: MOUSE LYMPHOMA, Strain/Indicator: L5178Y (TK+/TK-), Metabolic Activation: S-9, Method: MICROWELL): active; positive
- mutagenic call (Test System: UDS RAT HEPATOCYTES, Strain/Indicator: THY INCORP, Metabolic Activation: NONE, Method: AUTORADIOGRAPHY): inactive; negative

Compound: ClCc1c2ccccc2c2ccc3cccc4ccc1c2c43
- mutagenic call [1]: inactive; negative
- mutagenic call [3]: inactive; negative

Compound: O=C(NC(=O)c1c(F)cccc1F)Nc1cc(Cl)c(Oc2ncc(C(F)(F)F)cc2Cl)c(Cl)c1
- mutagenic call [1]: inactive; negative
- mutagenic call [2]: inactive; negative
- mutagenic call [3]: inactive; negative
- mutagenic call [4]: inactive; negative
- mutagenic call [5]: inactive; negative
- mutagenic call [6]: inactive; negative
- mutagenic call [7]: inactive; negative
- mutagenic call [8]: inactive; negative
- mutagenic call (Test System: AMES SALMONELLA TYPHIMURIUM, Strain/Indicator: TA1538, Metabolic Activation: NONE, Method: STANDARD PLATE): inactive; negative
- mutagenic call (Test System: AMES SALMONELLA TYPHIMURIUM, Strain/Indicator: TA1538, Metabolic Activation: RAT, LIVER, S-9, AROCLOR 1254, Method: STANDARD PLATE): inactive; negative

Compound: CC12C=CC(C1)C1C(=O)OC(=O)C12 (stereo unspecified)
- mutagenic call (Test System: Ames Salmonella typhimurium, Strain/Indicator: TA98, Metabolic Activation: None, Method: Preincubation): inactive; negative
- mutagenic call (Test System: Ames Salmonella typhimurium, Strain/Indicator: TA98, Metabolic Activation: Rat, Liver, S-9, Phenobarbital and 5,6-benzoflavone, Method: Preincubation): inactive; negative
- mutagenic call (Test System: Ames Salmonella typhimurium, Strain/Indicator: TA100, Metabolic Activation: None, Method: Preincubation): inactive; negative
- mutagenic call (Test System: Ames Salmonella typhimurium, Strain/Indicator: TA100, Metabolic Activation: Rat, Liver, S-9, Phenobarbital and 5,6-benzoflavone, Method: Preincubation): inactive; negative
- mutagenic call (Test System: Ames Salmonella typhimurium, Strain/Indicator: TA1535, Metabolic Activation: None, Method: Preincubation): inactive; negative
- mutagenic call (Test System: Ames Salmonella typhimurium, Strain/Indicator: TA1535, Metabolic Activation: Rat, Liver, S-9, Phenobarbital and 5,6-benzoflavone, Method: Preincubation): inactive; negative
- mutagenic call (Test System: Ames Salmonella typhimurium, Strain/Indicator: TA1537, Metabolic Activation: None, Method: Preincubation): inactive; negative
- mutagenic call (Test System: Ames Salmonella typhimurium, Strain/Indicator: TA1537, Metabolic Activation: Rat, Liver, S-9, Phenobarbital and 5,6-benzoflavone, Method: Preincubation): inactive; negative
- mutagenic call (Test System: E. coli, Strain/Indicator: WP2uvrA/pKM101, Metabolic Activation: None, Method: Preincubation): inactive; negative
- mutagenic call (Test System: E. coli, Strain/Indicator: WP2uvrA/pKM101, Metabolic Activation: Rat, Liver, S-9, Phenobarbital and 5,6-benzoflavone, Method: Preincubation): inactive; negative
